Measurements taken from patent publication US11000033B2, “Ketone or oxime compound, and herbicide” (NISSAN CHEMICAL CORPORATION, priority 2014, dated 2021).

Assays:
Type in all cases: in vivo
[1] = tested on: transplanted rice plant; experiment: Test Example 1: effect on crop, application before weed generation in submerged conditions (symbol a); conditions: application herbicide amount 320 g/ha
In short: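 Rice at 2.5 leaf stage transplanted into submerged soil (4 cm depth) sown with three weed species; herbicide applied before weed emergence.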

[2] = tested on: Echinochloa oryzacola Vasing.; experiment: Test Example 2: herbicidal activity, application during weed generation in submerged conditions (symbol A); conditions: Table 23; application herbicide amount 320 g/ha; grade 0-5 by criteria of Test Example 1
In short: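 Compound was applied as a water-diluted emulsion into the standing water of flooded pots (4 cm) once co-sown weeds reached one to two leaves. Greenhouse temperature was 25° C. to 30° C., soil was alluvial, and each species was rated visually after 3 weeks.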

[3] = tested on: Cyperus difformis; experiment: Test Example 3: herbicidal effect by foliage application, Wagner pot (symbol E); conditions: application herbicide amount 320 g/ha
In short: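 In a shallow-flooded alluvial soil system held at 25–30 °C, plants including rice grew for 14 days and were then sprayed over the foliage with emulsion diluted to a fixed herbicide amount. Visual rating followed at 3 weeks.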

[4] = tested on: Digitaria ciliaris; experiment: Test Example 4: herbicidal effect by soil treatment (symbol F); conditions: for F (Digitaria ciliaris) herbicidal effect grade: application herbicide amount 320 g/ha
In short: (§1)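 Seeds were sown in sterilized diluvial soil, covered with about 1.5 cm of soil, and the soil surface was sprayed with a water-diluted emulsion of the compound at a predetermined rate. Plants grew in a greenhouse at 25° C. to 30° C.; effects were scored visually 3 weeks after application.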

[5] = tested on: Avena fatua; experiment: Test Example 4: herbicidal effect by soil treatment (symbol I); conditions: for I (Avena fatua) herbicidal effect grade: application herbicide amount 320 g/ha
In short: as §1

[6] = tested on: soybean; experiment: Test Example 4: effect on crop by soil treatment (symbol d); conditions: for d (soybean) effect on crop grade: application herbicide amount 320 g/ha
In short: (§2)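 Diluvial soil (sterilized) in boxes; seeds placed spot-wise alongside weed species; ~1.5 cm covering soil. Greenhouse, 25–30° C.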

[7] = tested on: rice; experiment: Test Example 4: effect on crop by soil treatment (symbol b); conditions: for b (directly sowed rice plant) effect on crop grade: application herbicide amount 320 g/ha
In short: as §2

[8] = tested on: wheat; experiment: Test Example 4: effect on crop by soil treatment (symbol e); conditions: for e (wheat) effect on crop grade: application herbicide amount 320 g/ha
In short: as §2

[9] = tested on: rapeseed; experiment: Test Example 4: effect on crop by soil treatment (symbol g); conditions: for g (rapeseed) effect on crop grade: application herbicide amount 320 g/ha
In short: as §2

[10] = tested on: Stellaria media; experiment: Test Example 5: herbicidal effect by foliage application, plastic box (symbol P); conditions: 320 g/ha, 3 weeks after application
In short: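 Post-emergence spray; diluvial soil (sterilized), ~1.5 cm seed cover; greenhouse 25–30° C; 14-day-old plants; water-diluted emulsion at predetermined dose; visual score at 3 wk post-treatment.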

[11] = tested on: corn; experiment: Test Example 5: effect on crop by foliage application, plastic box (symbol c); conditions: 320 g/ha, 3 weeks after application
In short: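 Foliage-application test plants come from spot sowing in sterilized diluvial soil under a soil layer of about 1.5 cm, grown at 25° C. to 30° C. in a greenhouse.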

Row | SMILES | Effect grade on crop, a: transplanted rice plant [1] | Herbicidal effect grade, A: Echinochloa oryzacola Vasing. [2] | herbicidal effect on E, grade 0-5 [3] | F (Digitaria ciliaris) herbicidal effect grade [4] | I (Avena fatua) herbicidal effect grade [5] | d (soybean) effect on crop grade [6] | b (directly sowed rice plant) effect on crop grade [7] | e (wheat) effect on crop grade [8] | g (rapeseed) effect on crop grade [9] | P: Stellaria media, herbicidal effect grade [10] | c: corn, effect on crop grade [11] | P: Stellaria media, herbicidal effect (criteria 0-5) [10] | c: corn, effect on crop (criteria 0-5) [11] | F: Digitaria ciliaris, herbicidal effect grade ([4]; 320 g/ha) | I: Avena fatua, herbicidal effect grade ([5]; 320 g/ha) | d: soybean, effect grade on crop ([6]; 320 g/ha) | b: directly sowed rice plant, effect grade on crop ([7]; 320 g/ha) | e: wheat, effect grade on crop ([8]; 320 g/ha) | g: rapeseed, effect grade on crop ([9]; 320 g/ha)
1 | CON=C(C)CC1CC(OC(=O)C(C)(C)Oc2cccc(Cl)c2)=C(c2c(C)cc(C)cc2C)C1=O (stereo not drawn) [1-065] | 5 (Herbicidal ratio of 90% or more (almost completely withered)) | 4 (Herbicidal ratio of 70% or higher and lower than 90%) | 5 (Herbicidal ratio of 90% or more (almost completely withered)) | 5 (Herbicidal ratio of 90% or more (almost completely withered)) | 3 (Herbicidal ratio of 40% or higher and lower than 70%) | 0 (Herbicidal ratio of 5% or lower (almost no effect)) | 5 (Herbicidal ratio of 90% or more (almost completely withered)) | 4 (Herbicidal ratio of 70% or higher and lower than 90%) | 4 (Herbicidal ratio of 70% or higher and lower than 90%) | 0 (Herbicidal ratio of 5% or lower (almost no effect)) | 5 (Herbicidal ratio of 90% or more (almost completely withered)) |  |  |  |  |  |  |  | 
2 | CCC(C)C(CC1CC(O)=C(c2c(C)cc(C)cc2C)C1=O)=NOC (stereo not drawn) [1-066] | 5 (Herbicidal ratio of 90% or more (almost completely withered)) | 2 (Herbicidal ratio of 20% or higher and lower than 40%) | 5 (Herbicidal ratio of 90% or more (almost completely withered)) | 4 (Herbicidal ratio of 70% or higher and lower than 90%) | 0 (Herbicidal ratio of 5% or lower (almost no effect)) | 0 (Herbicidal ratio of 5% or lower (almost no effect)) | 5 (Herbicidal ratio of 90% or more (almost completely withered)) | 0 (Herbicidal ratio of 5% or lower (almost no effect)) | 0 (Herbicidal ratio of 5% or lower (almost no effect)) | 0 (Herbicidal ratio of 5% or lower (almost no effect)) | 4 (Herbicidal ratio of 70% or higher and lower than 90%) |  |  |  |  |  |  |  | 
3 | CON=C(C)CC1CC(OC(=O)COc2cccc(OC)c2)=C(c2c(C)cc(C)cc2C)C1=O (stereo not drawn) [1-068] | 5 (Herbicidal ratio of 90% or more (almost completely withered)) | 5 (Herbicidal ratio of 90% or more (almost completely withered)) | 5 (Herbicidal ratio of 90% or more (almost completely withered)) | 5 (Herbicidal ratio of 90% or more (almost completely withered)) | 3 (Herbicidal ratio of 40% or higher and lower than 70%) | 0 (Herbicidal ratio of 5% or lower (almost no effect)) | 5 (Herbicidal ratio of 90% or more (almost completely withered)) | 4 (Herbicidal ratio of 70% or higher and lower than 90%) | 4 (Herbicidal ratio of 70% or higher and lower than 90%) | 3 (Herbicidal ratio of 40% or higher and lower than 70%) | 5 (Herbicidal ratio of 90% or more (almost completely withered)) |  |  |  |  |  |  |  | 
4 | CON=C(C)CC1CC(OC(=O)COc2ccc(OC)cc2)=C(c2c(C)cc(C)cc2C)C1=O (stereo not drawn) [1-069] | 5 (Herbicidal ratio of 90% or more (almost completely withered)) | 4 (Herbicidal ratio of 70% or higher and lower than 90%) | 5 (Herbicidal ratio of 90% or more (almost completely withered)) | 5 (Herbicidal ratio of 90% or more (almost completely withered)) | 3 (Herbicidal ratio of 40% or higher and lower than 70%) | 0 (Herbicidal ratio of 5% or lower (almost no effect)) | 5 (Herbicidal ratio of 90% or more (almost completely withered)) | 4 (Herbicidal ratio of 70% or higher and lower than 90%) | 4 (Herbicidal ratio of 70% or higher and lower than 90%) | 3 (Herbicidal ratio of 40% or higher and lower than 70%) | 3 (Herbicidal ratio of 40% or higher and lower than 70%) |  |  |  |  |  |  |  | 
5 | CON=C(C)CC1CC(OC(=O)COc2ccc(F)cc2)=C(c2c(C)cc(C)cc2C)C1=O (stereo not drawn) [1-073] | 5 (Herbicidal ratio of 90% or more (almost completely withered)) | 5 (Herbicidal ratio of 90% or more (almost completely withered)) | 5 (Herbicidal ratio of 90% or more (almost completely withered)) | 5 (Herbicidal ratio of 90% or more (almost completely withered)) | 4 (Herbicidal ratio of 70% or higher and lower than 90%) | 0 (Herbicidal ratio of 5% or lower (almost no effect)) | 5 (Herbicidal ratio of 90% or more (almost completely withered)) | 4 (Herbicidal ratio of 70% or higher and lower than 90%) | 4 (Herbicidal ratio of 70% or higher and lower than 90%) |  |  | 2 (Herbicidal ratio of 20% or higher and lower than 40%) | 4 (Herbicidal ratio of 70% or higher and lower than 90%) |  |  |  |  |  | 
6 | CON=C(C)CC1CC(OC(=O)COc2ccc(C=O)cc2)=C(c2c(C)cc(C)cc2C)C1=O (stereo not drawn) [1-079] | 5 (Herbicidal ratio of 90% or more (almost completely withered)) | 5 (Herbicidal ratio of 90% or more (almost completely withered)) | 5 (Herbicidal ratio of 90% or more (almost completely withered)) |  |  |  |  |  |  |  |  | 1 (Herbicidal ratio of 5% or higher and lower than 20%) | 5 (Herbicidal ratio of 90% or more (almost completely withered)) | 5 (Herbicidal ratio of 90% or more (almost completely withered)) | 3 (Herbicidal ratio of 40% or higher and lower than 70%) | 1 (Herbicidal ratio of 5% or higher and lower than 20%) | 5 (Herbicidal ratio of 90% or more (almost completely withered)) | 4 (Herbicidal ratio of 70% or higher and lower than 90%) | 4 (Herbicidal ratio of 70% or higher and lower than 90%)
